# Reference: patent publication US9802974B2, “Synthesis of diverse glycosylphosphatidylinositol glycans from Toxoplasma gondii and their application as vaccines and diagnostics” (Max-Planck-Gesellschaft zur Förderung der Wissenschaften …, priority 2012, dated 2017)
# System: T. gondii tachyzoites
# Experiment: Immunofluorescence confocal microscopy of T. gondii tachyzoites with serum of mice immunized with the compound 4-CRM197 conjugate
# Type: binding, Toxoplasma gondii
# Conditions: paraformaldehyde-fixed tachyzoites, pooled serum from immunized mice, FIG. 13
# Experimental: Full circle in (C) indicates the apical and half circle the basolateral end of the parasite (white bar=5 μm).
# Extracellular tachyzoites collected from cell culture supernatants were fixed with 4% (w/v) paraformaldehyde in PBS for 30 min. Cells were washed three times with PBS, and incubated for 1 h with mice sera raised against compounds 3 or 4 diluted to 100 in PBS, 10% BSA. Cells were washed three times with PBS before incubated for 1 h with secondary FITC-conjugated anti-mouse immunoglobulin antibody (DakoCytomation, Glostrup) containing 10% BSA and washed finally three times with PBS. After three final washes with PBS, aliquot were spotted on microscope slides followed by a glass cover slides, mounted in Fluoroprep (Dako) and recorded by using a 100× Plan-NeoFluar oil objective lens with NA 1.30 using an Axiophot microscop (Zeiss).
# In contrast, antibodies binding to the parasite in sera of mice before immunization could not be detected. […] Tachyzoites secrete factors for attachment, invasion and formation of the parasitophorous vacuole, which is surrounding and protecting the parasite inside the host cell from endocytosis, in a regulated fashion from the apical region. […]
substance,measurement,value
6-O-(aminoethyl phosphono)-α-D-mannopyranosyl-(1→2)-α-D-mannopyranosyl-(1→6)-4-O-(α-D-glucopyranosyl-(1→4)-2-deoxy-2-acetamido-β-D-galactopyranosyl)-α-D-manno-pyranosyl-(1→4)-2-amino-2-deoxy-α-D-glucopyranosyl-(1→6)-1-O-(thiohexyl phosphono)-D-myo-inositol [compound 4],recognition of the natural GPI antigen on the T. gondii parasite by antibodies raised against the substance,bound to the surface of the parasite
